# Assay results published in patent EP3755703B1, “N-(PHENYL)-2-(PHENYL)PYRIMIDINE-4-CARBOXAMIDE DERIVATIVES AND RELATED COMPOUNDS AS HPK1 INHIBITORS FOR TREATING CANCER” (Incyte Corporation, priority 2018, dated 2019).
# Molecular target: T1, HPK1 (Homo sapiens, UniProt Q92918)
# T1 construct: purchased SignalChem M23-11G
# T1 sequence (Q92918 1-346 limits assumed): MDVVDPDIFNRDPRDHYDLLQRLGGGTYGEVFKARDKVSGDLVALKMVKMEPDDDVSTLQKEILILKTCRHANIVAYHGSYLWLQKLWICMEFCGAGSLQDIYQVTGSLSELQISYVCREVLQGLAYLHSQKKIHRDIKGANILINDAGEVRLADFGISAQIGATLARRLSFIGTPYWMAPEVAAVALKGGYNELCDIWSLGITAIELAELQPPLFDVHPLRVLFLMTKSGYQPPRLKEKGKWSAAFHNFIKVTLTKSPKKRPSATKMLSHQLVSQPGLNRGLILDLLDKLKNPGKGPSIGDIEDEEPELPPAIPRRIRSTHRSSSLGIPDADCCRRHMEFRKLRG
# Assay: HPK1 Kinase Binding Assay
# Conditions: LanthaScreen tracer 222, one hour incubation at 25 °C
row,Compound,Ki [nM]
1,"COc1cccc(F)c1-c1nccc(C(=O)Nc2ccccc2N2C[C@@H](N)C[C@H]2CO)n1 [Example 86, N-(2-((2S,4S)-4-Amino-2-(hydroxymethyl)pyrrolidin-1-yl)phenyl)-2-(2-fluoro-6-methoxyphenyl)pyrimidine-4-carboxamide]",< 100
2,"COc1cccc(F)c1-c1nccc(C(=O)Nc2cc(F)ccc2N2CCC3CNCC32)n1 (centres unmarked) [Example 9, N-(5-Fluoro-2-(hexahydropyrrolo[3,4-b]pyrrol-1(2H)-yl)phenyl)-2-(2-fluoro-6-methoxyphenyl)pyrimidine-4-carboxamide]",500 to 5000
3,"N#CC1(c2ccc(NC(=O)c3ccnc(-c4c(F)cccc4F)n3)c(N3C[C@@H](N)C[C@H]3CO)c2)CC1 [Example 94, N-(2-((2S,4S)-4-Amino-2-(hydroxymethyl)pyrrolidin-1-yl)-4-(1-cyanocyclopropyl)phenyl)-2-(2,6-difluorophenyl)pyrimidine-4-carboxamide]",< 100
4,"COc1cccc(F)c1-c1nccc(C(=O)Nc2cc(F)ccc2N2C[C@@H](O)C[C@@H]2C)n1 [Example 7, N-(5-Fluoro-2-((2S,4S)-4-hydroxy-2-methylpyrrolidin-1-yl)phenyl)-2-(2-fluoro-6-methoxyphenyl)pyrimidine-4-carboxamide]",< 100
5,"COc1cccc(F)c1-c1nccc(C(=O)Nc2cc(F)cc(-c3cccnc3)c2N2C[C@H]3C[C@@H]2CN3)n1 [Example 15, N-(2-((1R,4R)-2,5-Diazabicyclo[2.2.1]heptan-2-yl)-5-fluoro-3-(pyridin-3-yl)phenyl)-2-(2-fluoro-6-methoxyphenyl)pyrimidine-4-carboxamide]",< 100
6,COc1cccc(F)c1-c1nccc(C(=O)Nc2cc(F)ccc2N2CCNC[C@H]2C)n1 [Example 10],< 100
7,"CCCNC(=O)N1C[C@H]2C[C@@H]1CN2c1ccc(F)cc1NC(=O)c1ccnc(-c2c(F)cccc2OC)n1 [Example 34, (1R,4R)-5-(4-Fluoro-2-(2-(2-fluoro-6-methoxyphenyl)pyrimidine-4-carboxamido)phenyl)-N-propyl-2,5-diazabicyclo[2.2.1]heptane-2-carboxamide]",< 100

# The remaining lines, values ahead:
row,Ki [nM],Compound
1,< 100,"COc1cccc(F)c1-c1nccc(C(=O)Nc2ccc(-c3cnccc3C#N)cc2N2C[C@@H]3C[C@@]2(CO)CN3)n1 [Example 57, N-(4-(4-Cyanopyridin-3-yl)-2-((1S,4S)-1-(hydroxymethyl)-2,5-diazabicyclo[2.2.1]heptan-2-yl)phenyl)-2-(2-fluoro-6-methoxyphenyl)pyrimidine-4-carboxamide]"
2,< 100,"COc1cccc(F)c1-c1nccc(C(=O)Nc2ccc(-c3cnccc3C#N)cc2N2CCN(CCO)CC2)n1 [Example 109, N-(4-(4-Cyanopyridin-3-yl)-2-(4-(2-hydroxyethyl)piperazin-1-yl)phenyl)-2-(2-fluoro-6-methoxyphenyl)pyrimidine-4-carboxamide]"
3,< 100,"COc1cccc(F)c1-c1nccc(C(=O)Nc2ccc(-c3cnccc3C#N)cc2N2CCN3C(=O)OC[C@H]3C2)n1 [Example 103, (R)-N-(4-(4-Cyanopyridin-3-yl)-2-(3-oxotetrahydro-3H-oxazolo[3,4-a]pyrazin-7(1H)-yl)phenyl)-2-(2-fluoro-6-methoxyphenyl)pyrimidine-4-carboxamide]"
4,< 100,"N#Cc1ccncc1-c1ccc(NC(=O)c2ccnc(-c3c(F)cccc3C3CC3)n2)c(N2C[C@@H](N)C[C@H]2CO)c1 [Example 97, N-(2-((2S,4S)-4-Amino-2-(hydroxymethyl)pyrrolidin-1-yl)-4-(4-cyanopyridin-3-yl)phenyl)-2-(2-cyclopropyl-6-fluorophenyl)pyrimidine-4-carboxamide]"
